Columns and labels:
Assay in all cases: UAG suppression of SAMP1 reporter in H. volcanii, immunoblot and LC-MS/MS of the product
Format in all cases: cell-based
HMET1 PylRS1 [1] = biological target: T1, HMET1 PylRS1 (Candidatus Methanohalarchaeum thermophilum, UniProt A0A1Q6DXK2, N163S/V165I); settings: 1 mM 3-I-Phe in medium, tRNAPyl1, 42 °C; printed as PylRS1-SI
T1 construct: gene BTN85_1602; deltaPylSn type (catalytic domain only), N-terminal 6xHis tag, expressed in Haloferax volcanii

HMET1 PylRS2 = biological target: T2, HMET1 PylRS2 (Candidatus Methanohalarchaeum thermophilum, UniProt A0A1Q6DTA0); settings: 1 mM BocK in medium, cognate tRNAPyl2, 42 °C
T2 construct: gene BTN85_0018; deltaPylSn type (catalytic domain only), N-terminal 6xHis tag, expressed in Haloferax volcanii
T2 sequence (A0A1Q6DTA0 1-273): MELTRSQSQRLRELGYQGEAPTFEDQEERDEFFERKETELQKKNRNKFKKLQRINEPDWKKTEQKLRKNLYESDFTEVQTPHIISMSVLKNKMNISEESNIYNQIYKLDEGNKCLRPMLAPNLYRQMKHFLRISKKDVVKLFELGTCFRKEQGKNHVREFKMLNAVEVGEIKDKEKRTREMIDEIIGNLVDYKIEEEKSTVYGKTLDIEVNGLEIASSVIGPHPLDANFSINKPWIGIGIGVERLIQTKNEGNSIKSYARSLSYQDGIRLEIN

HMET1 PylRS1 [2] = biological target: T3, HMET1 PylRS1 (Candidatus Methanohalarchaeum thermophilum, UniProt A0A1Q6DXK2); settings: 1 mM BocK in medium, cognate tRNAPyl1, 42 °C
T3 construct: gene BTN85_1602; deltaPylSn type (catalytic domain only), N-terminal 6xHis tag, expressed in Haloferax volcanii
T3 sequence (A0A1Q6DXK2 1-273): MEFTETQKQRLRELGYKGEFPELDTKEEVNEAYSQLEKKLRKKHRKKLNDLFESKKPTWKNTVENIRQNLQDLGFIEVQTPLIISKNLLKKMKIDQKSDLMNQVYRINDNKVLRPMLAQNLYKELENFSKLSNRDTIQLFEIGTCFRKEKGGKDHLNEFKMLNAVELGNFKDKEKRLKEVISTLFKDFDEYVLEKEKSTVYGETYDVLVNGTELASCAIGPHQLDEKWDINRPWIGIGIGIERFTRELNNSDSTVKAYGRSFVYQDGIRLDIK

T1 sequence (A0A1Q6DXK2 entry or part of it N163S/V165I): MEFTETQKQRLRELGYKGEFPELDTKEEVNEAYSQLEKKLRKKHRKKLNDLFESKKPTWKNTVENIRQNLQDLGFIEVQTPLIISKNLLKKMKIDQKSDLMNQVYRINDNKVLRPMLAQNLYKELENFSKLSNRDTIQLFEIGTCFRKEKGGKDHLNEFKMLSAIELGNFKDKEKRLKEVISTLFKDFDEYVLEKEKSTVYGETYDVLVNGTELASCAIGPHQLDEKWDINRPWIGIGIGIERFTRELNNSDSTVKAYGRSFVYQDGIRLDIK

Structure (SMILES)	UAG suppression of SAMP1 reporter in H. volcanii, immunoblot and LC-MS/MS of the (HMET1 PylRS1 [1])	UAG suppression of SAMP1 reporter in H. volcanii, immunoblot and LC-MS/MS of the (HMET1 PylRS2)	UAG suppression of SAMP1 reporter in H. volcanii, immunoblot and LC-MS/MS of the (HMET1 PylRS1 [2])
N[C@@H](Cc1cccc(I)c1)C(=O)O [3-I-Phe]	The PylRS1-SI/tRNA^Pyl1 pair exhibited strong amber suppression in a 3-I-Phe-dependent manner	–	–
CC(C)(C)OC(=O)NCCCC[C@H](N)C(=O)O [BocK]	–	native HMET1 PylRS/tRNA^Pyl pairs incorporate BocK into proteins via genetic code expansion in H. volcanii	both HMET1 PylRS/tRNA^Pyl pairs facilitated efficient amber suppression

— PMC9071458, “The tRNA discriminator base defines the mutual orthogonality of two distinct pyrrolysyl-tRNA synthetase/tRNA^Pyl pairs in the same organism” (Nucleic Acids Research, 2022)
